In patent publication US20130306000A1, “Aflaxtoxin Resistant Poultry” (priority 2012, published 2013):

Tests used:
[1] = tested on: Turkey liver cytosolic GSTs; assay: Turkey liver cytosolic GST activity toward substrates; assay type: biochemical; settings: turkey liver cytosol
[2] = tested on: BHA-induced mouse liver; assay type: in vitro ADME

Compound	activity of turkey liver cytosolic GSTs toward the substrate [1]	AFB1 detoxification, specific enzyme activity [2]
O=[N+]([O-])c1ccc(Cl)c([N+](=O)[O-])c1 [CDNB, chlorodinitrobenezene]	active	
aflatoxin B1 [AFB1]		0.426 ± 0.04 nmol/min per mg protein
O=[N+]([O-])c1ccc(Cl)c(Cl)c1 [DCNB, dichlornitrobenzene]	active	
exo-AFB1-8,9-epoxide [AFBO]	not toward	
